Source: ChEMBL document CHEMBL3407459, “Synthesis and antimicrobial activity of novel structural hybrids of benzofuroxan and benzothiazole derivatives” (2015)

What was measured:
[1] = tested on: Escherichia coli; experiment: Antibacterial activity against Escherichia coli MG1655 harboring pGrpE-lux assessed as maximum induction factor at 10^-11 M after 120 mins by luminometric analysis; format: functional, K-12 substr. MG1655
[2] = tested on: Escherichia coli; experiment: Antibacterial activity against Escherichia coli MG1655 harboring pIbpA-lux assessed as maximum induction factor at 10^-11 M after 120 mins by luminometric analysis; format: functional, K-12 substr. MG1655
[3] = tested on: Escherichia coli; experiment: Antibacterial activity against Escherichia coli MG1655 harboring pSoxS-lux assessed as maximum induction factor at 10^-12 M after 120 mins by luminometric analysis; format: functional, K-12 substr. MG1655
[4] = tested on: Escherichia coli; experiment: Antibacterial activity against Escherichia coli MG1655 harboring pKatG-lux assessed as maximum induction factor at 10^-13 M after 120 mins by luminometric analysis; format: functional, K-12 substr. MG1655
[5] = tested on: Vibrio sp.; experiment: Antibacterial activity against Vibrio aqamarinus VKPM B-11245 assessed as toxicity index at 10^-5 M measured for 2 hrs by luminometric analysis; format: functional
[6] = tested on: Vibrio sp.; experiment: Antibacterial activity against Vibrio aqamarinus VKPM B-11245 assessed as toxicity index at 10^-7 M measured for 2 hrs by luminometric analysis; format: functional
[7] = tested on: Vibrio sp.; experiment: Antibacterial activity against Vibrio aqamarinus VKPM B-11245 assessed as toxicity index at 10^-8 M measured for 2 hrs by luminometric analysis; format: functional
[8] = tested on: Escherichia coli; experiment: Antibacterial activity against Escherichia coli MG1655 harboring pXen7 assessed as toxicity index at 10^-4 M measured for 2 hrs by luminometric analysis; format: functional, K-12 substr. MG1655
[9] = tested on: Escherichia coli; experiment: Antibacterial activity against Escherichia coli MG1655 harboring pXen7 assessed as toxicity index at 10^-10 M measured for 2 hrs by luminometric analysis; format: functional, K-12 substr. MG1655
[10] = tested on: Escherichia coli; experiment: Antibacterial activity against Escherichia coli MG1655 harboring pXen7 assessed as toxicity index at 10^-11 M measured for 2 hrs by luminometric analysis; format: functional, K-12 substr. MG1655
[11] = tested on: Escherichia coli; experiment: Antibacterial activity against Escherichia coli MG1655 harboring pXen7 assessed as toxicity index at 10^-12 M measured for 2 hrs by luminometric analysis; format: functional, K-12 substr. MG1655
[12] = tested on: Escherichia coli; experiment: Antibacterial activity against Escherichia coli MG1655 harboring pKatG-lux assessed as maximum induction factor at 10^-3 M after 120 mins by luminometric analysis; format: functional, K-12 substr. MG1655
[13] = tested on: Escherichia coli; experiment: Antibacterial activity against Escherichia coli MG1655 harboring pColD-lux assessed as maximum induction factor at 10^-3 M after 120 mins by luminometric analysis; format: functional, K-12 substr. MG1655
[14] = tested on: Escherichia coli; experiment: Antibacterial activity against Escherichia coli MG1655 harboring pGrpE-lux assessed as maximum induction factor at 10^-3 M after 120 mins by luminometric analysis; format: functional, K-12 substr. MG1655
[15] = tested on: Escherichia coli; experiment: Antibacterial activity against Escherichia coli MG1655 harboring pSoxS-lux assessed as maximum induction factor at 10^-4 M after 120 mins by luminometric analysis; format: functional, K-12 substr. MG1655
[16] = tested on: Escherichia coli; experiment: Antibacterial activity against Escherichia coli MG1655 harboring pColD-lux assessed as maximum induction factor at 10^-4 M after 120 mins by luminometric analysis; format: functional, K-12 substr. MG1655
[17] = tested on: Escherichia coli; experiment: Antibacterial activity against Escherichia coli MG1655 harboring pGrpE-lux assessed as maximum induction factor at 10^-4 M after 120 mins by luminometric analysis; format: functional, K-12 substr. MG1655
[18] = tested on: Escherichia coli; experiment: Antibacterial activity against Escherichia coli MG1655 harboring pIbpA-lux assessed as maximum induction factor at 10^-4 M after 120 mins by luminometric analysis; format: functional, K-12 substr. MG1655
[19] = tested on: Escherichia coli; experiment: Antibacterial activity against Escherichia coli MG1655 harboring pSoxS-lux assessed as maximum induction factor at 10^-5 M after 120 mins by luminometric analysis; format: functional, K-12 substr. MG1655
[20] = tested on: Escherichia coli; experiment: Antibacterial activity against Escherichia coli MG1655 harboring pSoxS-lux assessed as maximum induction factor at 10^-6 M after 120 mins by luminometric analysis; format: functional, K-12 substr. MG1655
[21] = tested on: Escherichia coli; experiment: Antibacterial activity against Escherichia coli MG1655 harboring pKatG-lux assessed as maximum induction factor at 10^-6 M after 120 mins by luminometric analysis; format: functional, K-12 substr. MG1655
[22] = tested on: Escherichia coli; experiment: Antibacterial activity against Escherichia coli MG1655 harboring pIbpA-lux assessed as maximum induction factor at 10^-6 M after 120 mins by luminometric analysis; format: functional, K-12 substr. MG1655
[23] = tested on: Escherichia coli; experiment: Antibacterial activity against Escherichia coli MG1655 harboring pSoxS-lux assessed as maximum induction factor at 10^-7 M after 120 mins by luminometric analysis; format: functional, K-12 substr. MG1655
[24] = tested on: Escherichia coli; experiment: Antibacterial activity against Escherichia coli MG1655 harboring pKatG-lux assessed as maximum induction factor at 10^-7 M after 120 mins by luminometric analysis; format: functional, K-12 substr. MG1655
[25] = tested on: Escherichia coli; experiment: Antibacterial activity against Escherichia coli MG1655 harboring pRecA-lux assessed as maximum induction factor at 10^-7 M after 120 mins by luminometric analysis; format: functional, K-12 substr. MG1655
[26] = tested on: Escherichia coli; experiment: Antibacterial activity against Escherichia coli MG1655 harboring pSoxS-lux assessed as maximum induction factor at 10^-8 M after 120 mins by luminometric analysis; format: functional, K-12 substr. MG1655
[27] = tested on: Escherichia coli; experiment: Antibacterial activity against Escherichia coli MG1655 harboring pKatG-lux assessed as maximum induction factor at 10^-8 M after 120 mins by luminometric analysis; format: functional, K-12 substr. MG1655
[28] = tested on: Escherichia coli; experiment: Antibacterial activity against Escherichia coli MG1655 harboring pColD-lux assessed as maximum induction factor at 10^-10 M after 120 mins by luminometric analysis; format: functional, K-12 substr. MG1655
[29] = tested on: Escherichia coli; experiment: Antibacterial activity against Escherichia coli MG1655 harboring pGrpE-lux assessed as maximum induction factor at 10^-10 M after 120 mins by luminometric analysis; format: functional, K-12 substr. MG1655

Question: How did the Activity [1] turn out when `O=[N+]([O-])c1cc([N+](=O)[O-])c2no[n+]([O-])c2c1Sc1nc2ccccc2s1` was run?
Answer: 1.05

Question: What about the Activity [2] of the same molecule?
Answer: 1.47

Question: What about the Activity [3] of the same molecule?
Answer: 1.41

Question: And the Activity [4]?
Answer: 0.87

Question: And the Activity [5]?
Answer: 98.83

Question: And the Activity [6]?
Answer: 22.52

Question: What about the Activity [7] of the same molecule?
Answer: 5.97

Question: What about the Activity [8] of the same molecule?
Answer: 98

Question: And the Activity [9]?
Answer: 3.82

Question: What about the Activity [10] of the same molecule?
Answer: 0

Question: What about the Activity [11] of the same molecule?
Answer: 10.52

Question: What about the Activity [12] of the same molecule?
Answer: 0.18

Question: What about the Activity [13] of the same molecule?
Answer: 0.08

Question: And the Activity [14]?
Answer: 0.35

Question: What about the Activity [15] of the same molecule?
Answer: 2.71

Question: What about the Activity [16] of the same molecule?
Answer: 1.48

Question: What about the Activity [17] of the same molecule?
Answer: 0.51

Question: And the Activity [18]?
Answer: 0.63

Question: And the Activity [19]?
Answer: 0.99

Question: And the Activity [20]?
Answer: 1.28

Question: And the Activity [21]?
Answer: 0.8

Question: What about the Activity [22] of the same molecule?
Answer: 1.28

Question: And the Activity [23]?
Answer: 1.02

Question: And the Activity [24]?
Answer: 0.91

Question: What about the Activity [25] of the same molecule?
Answer: 1.01

Question: What about the Activity [26] of the same molecule?
Answer: 1.27

Question: And the Activity [27]?
Answer: 0.84

Question: And the Activity [28]?
Answer: 1.04

Question: What about the Activity [29] of the same molecule?
Answer: 1.15
